From patent US12281095B2, “Pesticidally active diazine-amide compounds” (SYNGENTA CROP PROTECTION AG, priority 2019, dated 2025)

Legend:
Assay type in all cases: in vivo
[1] = system: Diabrotica balteata (Corn Root Worm); test: Example B1: Diabrotica balteata (Corn Root Worm), sprayed maize sprouts; conditions: 96 h, application rate of 200 ppm, L2 larvae, 4 days after infestation, read-out: control in at least one of the two categories (mortality or growth inhibition)
Protocol: Example B1: Diabrotica balteata (Corn Root Worm)
Maize sprouts placed onto an agar layer in 24-well microtiter plates were treated with aqueous test solutions prepared from 10′000 ppm DMSO stock solutions by spraying. After drying, the plates were infested with L2 larvae (6 to 10 per well). The samples were assessed for mortality and growth inhibition in comparison to untreated samples 4 days after infestation.

[2] = system: Chilo suppressalis (Striped Rice Stemborer); test: Example B4: Chilo suppressalis (Striped Rice Stemborer), artificial diet; conditions: 144 h, application rate of 200 ppm, L2 larvae, 6 days after infestation, read-out: control in at least one of the three categories (mortality, anti-feedant or growth inhibition)
Method in brief: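 Artificial diet was treated with aqueous dilutions made from 10'000 ppm DMSO stocks, dried, then infested with L2 larvae at 6–8 per well. Mortality, antifeedant effect and growth inhibition were assessed against untreated samples 6 days after infestation.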

[3] = system: Plutella xylostella (Diamond Back Moth); test: Example B5: Plutella xylostella (Diamond Back Moth), artificial diet, 24-well; conditions: 192 h, application rate of 200 ppm, eggs, 8 days after infestation, read-out: control in at least one of the two categories (mortality or growth inhibition)
Protocol: Example B5: Plutella xylostella (Diamond Back Moth)
24-well microtiter plates with artificial diet were treated with aqueous test solutions prepared from 10′000 ppm DMSO stock solutions by pipetting. After drying, Plutella eggs were pipetted through a plastic stencil onto a gel blotting paper and the plate was closed with it. The samples were assessed for mortality and growth inhibition in comparison to untreated samples 8 days after infestation.

[4] = system: Spodoptera littoralis (Egyptian Cotton Leaf Worm); test: Example B9: Spodoptera littoralis (Egyptian Cotton Leaf Worm), sprayed cotton leaf discs; conditions: foliar, 72 h, application rate of 200 ppm, L1 larvae, 3 days after infestation, read-out: control in at least one of the three categories (mortality, anti-feedant or growth inhibition)
[5] = system: Tetranychus urticae (Two-Spotted Spider Mite); test: Example B11: Tetranychus urticae (Two-Spotted Spider Mite), sprayed bean leaf discs; conditions: foliar, 192 h
Protocol: Example B11: Tetranychus urticae (Two-Spotted Spider Mite)
Bean leaf discs on agar in 24-well microtiter plates were sprayed with aqueous test solutions prepared from 10′000 ppm DMSO stock solutions. After drying the leaf discs were infested with a mite population of mixed ages. The samples were assessed for mortality on mixed population (mobile stages) 8 days after infestation.

[6] = system: Plutella xylostella (Diamondback Moth); test: Example B13: Plutella xylostella (Diamondback Moth), artificial diet, 96-well; conditions: 216 h, application rate of 500 ppm, eggs/L1 larvae, 9 days after infestation
Protocol: Example B13: Plutella xylostella (Diamondback Moth)
96-well microtiter plates containing artificial diet were treated with aqueous test solutions, prepared from 10′000 ppm DMSO stock solutions, by a liquid handling robot. After drying, eggs (˜30 per well) were infested onto a netted lid which was suspended above the diet. The eggs hatch and L1 larvae move down to the diet. The samples were assessed for mortality 9 days after infestation.

[7] = system: Euschistus heros (Neotropical Brown Stink Bug); test: Example B2: Euschistus heros (Neotropical Brown Stink Bug), sprayed soybean leaves; conditions: 120 h, application rate of 200 ppm, N2 nymphs, 5 days after infestation, read-out: control in at least one of the two categories (mortality or growth inhibition)
Protocol: Example B2: Euschistus heros (Neotropical Brown Stink Bug)
Soybean leaves on agar in 24-well microtiter plates were sprayed with aqueous test solutions prepared from 10′000 ppm DMSO stock solutions. After drying the leaves were infested with N2 nymphs. The samples were assessed for mortality and growth inhibition in comparison to untreated samples 5 days after infestation.

[8] = system: Myzus persicae (Green Peach Aphid); test: Example B8: Myzus persicae (Green Peach Aphid): Intrinsic Activity; conditions: 120 h, test rate of 12 ppm, sucrose solution, 5 days after infestation
Source text: Example B8: Myzus persicae (Green Peach Aphid): Intrinsic Activity
Test compounds prepared from 10′000 ppm DMSO stock solutions were applied by pipette into 24-well microtiter plates and mixed with sucrose solution. The plates were closed with a stretched Parafilm. A plastic stencil with 24 holes was placed onto the plate and infested pea seedlings were placed directly on the Parafilm. The infested plate was closed with a gel blotting paper and another plastic stencil and then turned upside down. The samples were assessed for mortality 5 days after infestation.

[9] = system: Spodoptera littoralis (Egyptian Cotton Leaf Worm); test: Example B10: Spodoptera littoralis (Egyptian Cotton Leaf Worm), uptake by lettuce roots from agar; conditions: 144 h, test rate of 12.5 ppm, compound absorbed by lettuce roots, eggs, 6 days after infestation, read-out: control in at least one of the three categories (mortality, anti-feeding, or growth inhibition)
Source text: Example B10: Spodoptera littoralis (Egyptian Cotton Leaf Worm)
Test compounds were applied by pipette from 10′000 ppm DMSO stock solutions into 24-well plates and mixed with agar. Lettuce seeds were placed onto the agar and the multi well plate was closed by another plate which contained also agar. After 7 days the compound was absorbed by the roots and the lettuce grew into the lid plate. The lettuce leaves were then cut off into the lid plate. Spodoptera eggs were pipetted through a plastic stencil onto a humid gel blotting paper and the lid plate was closed with it. The samples were assessed for mortality, anti-feedant effect and growth inhibition in comparison to untreated samples 6 days after infestation.

[10] = system: Myzus persicae (Green Peach Aphid); test: Example B12: Myzus persicae (Green Peach Aphid), 96-well sucrose solution; conditions: 120 h, application rate of 50 ppm, 5 days after infestation
Source text: Example B12: Myzus persicae (Green Peach Aphid)
Test compounds prepared from 10′000 ppm DMSO stock solutions were applied by a liquid handling robot into 96-well microtiter plates and mixed with a sucrose solution. Parafilm was stretched over the 96-well microtiter plate and a plastic stencil with 96 holes was placed onto the plate. Aphids were sieved into the wells directly onto the Parafilm. The infested plates were closed with a gel blotting card and a second plastic stencil and then turned upside down. The samples were assessed for mortality 5 days after infestation.

[11] = system: Frankliniella occidentalis (Western Flower Thrips); test: Example B3: Frankliniella occidentalis (Western Flower Thrips): Feeding/Contact Activity; conditions: 168 h, application rate of 200 ppm, population of mixed ages, 7 days after infestation
Protocol: Example B3: Frankliniella occidentalis (Western Flower Thrips): Feeding/Contact Activity
Sunflower leaf discs were placed on agar in 24-well microtiter plates and sprayed with aqueous test solutions prepared from […] stock solutions. After drying the leaf discs were infested with a Frankliniella population of mixed ages. The samples were assessed for mortality 7 days after infestation.

[12] = system: Myzus persicae (Green Peach Aphid); test: Example B6: Myzus persicae (Green Peach Aphid): Feeding/Contact Activity; conditions: 144 h, application rate of 200 ppm, aphid population of mixed ages, 6 days after infestation
Protocol: Example B6: Myzus persicae (Green Peach Aphid): Feeding/Contact Activity
Sunflower leaf discs were placed onto agar in a 24-well microtiter plate and sprayed with aqueous test solutions prepared from 10′000 ppm DMSO stock solutions. After drying, the leaf discs were infested with an aphid population of mixed ages. The samples were assessed for mortality 6 days after infestation.

CC(NC(=O)c1cc(C(F)(F)F)nc(C2(C#N)CC2)c1)c1nccnc1-c1ccc(OCC(F)F)cn1 (stereo not shown) [P22, 2-(1-cyanocyclopropyl)-N-[1-[3-[5-(2,2-difluoroethoxy)-2-pyridyl]pyrazin-2-yl]ethyl]-6-(trifluoromethyl)pyridine-4-carboxamide]
≥ 80%: percent control (mortality or growth inhibition) at 200 ppm [1] | percent control (mortality, anti-feedant effect or growth inhibition) at 200 ppm [2] | percent control (mortality or growth inhibition) at 200 ppm [3] | percent control (mortality, anti-feedant effect or growth inhibition) at 200 ppm [4] | mortality at 200 ppm [5] | mortality at 500 ppm [6]

CC(NC(=O)c1cc(C(F)(F)F)cc(C2(C#N)CC2)c1)c1nccnc1-c1ncc(OC(F)F)cn1 (stereo not shown) [P32, 3-(1-cyanocyclopropyl)-N-[1-[3-[5-(difluoromethoxy)pyrimidin-2-yl]pyrazin-2-yl]ethyl]-5-(trifluoromethyl)benzamide]
≥ 80%: percent control (mortality or growth inhibition) at 200 ppm [1] | percent control (mortality or growth inhibition) at 200 ppm [7] | percent control (mortality, anti-feedant effect or growth inhibition) at 200 ppm [2] | percent control (mortality or growth inhibition) at 200 ppm [3] | mortality at 12 ppm [8] | percent control (mortality, anti-feedant effect or growth inhibition) at 200 ppm [4] | percent control (mortality, anti-feeding or growth inhibition) at 12.5 ppm [9] | mortality at 50 ppm [10] | mortality at 500 ppm [6]

CC(NC(=O)c1cc(C(F)(F)F)nc(C2(C#N)CC2)c1)c1nccnc1-c1ncc(OCC(F)(F)F)cn1 (stereo not shown) [P34, 2-(1-cyanocyclopropyl)-N-[1-[3-[5-(2,2,2-trifluoroethoxy)pyrimidin-2-yl]pyrazin-2-yl]ethyl]-6-(trifluoromethyl)pyridine-4-carboxamide]
≥ 80%: percent control (mortality or growth inhibition) at 200 ppm [1] | percent control (mortality or growth inhibition) at 200 ppm [7] | percent control (mortality, anti-feedant effect or growth inhibition) at 200 ppm [2] | percent control (mortality or growth inhibition) at 200 ppm [3] | mortality at 12 ppm [8] | percent control (mortality, anti-feedant effect or growth inhibition) at 200 ppm [4] | percent control (mortality, anti-feeding or growth inhibition) at 12.5 ppm [9] | mortality at 50 ppm [10] | mortality at 500 ppm [6]

CC(NC(=O)c1cc(C(F)(F)F)nc(C2(C#N)CC2)c1)c1nccnc1-c1ncc(OC(F)F)cn1 (stereo not shown) [P36, 2-(1-cyanocyclopropyl)-N-[1-[3-[5-(difluoromethoxy)pyrimidin-2-yl]pyrazin-2-yl]ethyl]-6-(trifluoromethyl)pyridine-4-carboxamide]
≥ 80%: percent control (mortality or growth inhibition) at 200 ppm [1] | percent control (mortality or growth inhibition) at 200 ppm [7] | percent control (mortality, anti-feedant effect or growth inhibition) at 200 ppm [2] | percent control (mortality or growth inhibition) at 200 ppm [3] | percent control (mortality, anti-feedant effect or growth inhibition) at 200 ppm [4] | percent control (mortality, anti-feeding or growth inhibition) at 12.5 ppm [9] | mortality at 50 ppm [10] | mortality at 500 ppm [6]

CC(NC(=O)c1cc(C(F)(F)F)nc(C2(C#N)CC2)c1)c1nccnc1-c1ncc(OCC(F)F)cn1 (stereo not shown) [P40, 2-(1-cyanocyclopropyl)-N-[1-[3-[5-(2,2-difluoroethoxy)pyrimidin-2-yl]pyrazin-2-yl]ethyl]-6-(trifluoromethyl)pyridine-4-carboxamide]
≥ 80%: percent control (mortality or growth inhibition) at 200 ppm [1] | percent control (mortality or growth inhibition) at 200 ppm [7] | percent control (mortality, anti-feedant effect or growth inhibition) at 200 ppm [2] | percent control (mortality or growth inhibition) at 200 ppm [3] | mortality at 12 ppm [8] | percent control (mortality, anti-feedant effect or growth inhibition) at 200 ppm [4] | percent control (mortality, anti-feeding or growth inhibition) at 12.5 ppm [9] | mortality at 50 ppm [10] | mortality at 500 ppm [6]

CC(NC(=O)c1cc(OC(F)F)cc(C2(C#N)CC2)c1)c1nccnc1-c1ccc(C#N)cn1 (stereo not shown) [P44, 3-(1-cyanocyclopropyl)-N-[1-[3-(5-cyano-2-pyridyl)pyrazin-2-yl]ethyl]-5-(difluorometh-oxy)benzamide]
≥ 80%: percent control (mortality or growth inhibition) at 200 ppm [1] | mortality at 200 ppm [11] | percent control (mortality, anti-feedant effect or growth inhibition) at 200 ppm [2] | percent control (mortality or growth inhibition) at 200 ppm [3] | mortality at 12 ppm [8] | percent control (mortality, anti-feedant effect or growth inhibition) at 200 ppm [4]

CC(NC(=O)c1cc(C(F)(F)F)cc(C(C)(C)C#N)c1)c1nccnc1-c1ncc(OCC(F)F)cn1 (stereo not shown) [P48, 3-(1-cyano-1-methyl-ethyl)-N-[1-[3-[5-(2,2-difluoroeth-oxy)pyrimidin-2-yl]pyrazin-2-yl]ethyl]-5-(trifluoro-methyl)benzamide]
≥ 80%: percent control (mortality or growth inhibition) at 200 ppm [1] | percent control (mortality or growth inhibition) at 200 ppm [7] | mortality at 200 ppm [11] | percent control (mortality, anti-feedant effect or growth inhibition) at 200 ppm [2] | percent control (mortality or growth inhibition) at 200 ppm [3] | mortality at 12 ppm [8] | percent control (mortality, anti-feedant effect or growth inhibition) at 200 ppm [4]

CC(NC(=O)c1cc(C(F)(F)F)cc(C2(C#N)CC2)c1)c1nccnc1-c1ncc(OCC(F)F)cn1 (stereo not shown) [P49, 3-(1-cyanocyclopropyl)-N-[1-[3-[5-(2,2-difluoroethoxy)pyrimidin-2-yl]pyrazin-2-yl]ethyl]-5-(trifluoromethyl)benzamide]
≥ 80%: percent control (mortality or growth inhibition) at 200 ppm [1] | percent control (mortality or growth inhibition) at 200 ppm [7] | percent control (mortality, anti-feedant effect or growth inhibition) at 200 ppm [2] | percent control (mortality or growth inhibition) at 200 ppm [3] | mortality at 200 ppm [12] | mortality at 12 ppm [8] | percent control (mortality, anti-feedant effect or growth inhibition) at 200 ppm [4]
